Values joined by “and” are separate entries in the source; they are usually repeats but may differ in a detail not shown here. Identical values can stand only once. Like-named read-outs stand apart in the source and are kept apart here. Marks after values point to notes of the source that are not given here.
Experiments:
[1] = test system: H. pylori strain 26695; test: Growth curve method / MIC in liquid culture, strain 26695; assay type: cell-based, Helicobacter pylori; details: strain 26695; for inhibition of bacterial growth: concentrations up to 5 mM
Experimental: (§1) The representative PNP inhibitor from H. pylori included in this study was immucillin A. The experiment was conducted using the growth curve method (two-fold serial dilutions in liquid medium). The tested H. pylori strains were cultured in Petri dishes with BHI solid medium supplemented with 10% FBS and 1% H. pylori Selective Supplement antibiotic kit, in anaerostats under microaerophilic conditions (5% 02, 10% CO2, 85% N2) at 37° C. for 3 days. Liquid culture of H. pylori was conducted overnight with shaking at 37° C. under microaerophilic conditions in BHI medium supplemented with 10% FBS and 1% H. pylori Selective Supplement antibiotic kit. Subsequently, for the essential experiment of determining the minimum inhibitory concentration (MIC), double strengthened liquid BHI medium was prepared, that is, supplemented with 20% FBS and a 2% set of H. pylori Selective Supplement antibiotics.
(§2) Bacterial proliferation inhibition experiments were carried out in 24-deep-well 2 ml flat-bottomed plates at a solution volume per well of 0.5 ml. In a single well, double strengthened (relative to the concentration planned for testing) solutions of the test inhibitor and double strengthened liquid BHI medium inoculated with H. pylori (10^4-10^5 CFU/ml in the final volume in the well, corresponding to the optical density of the culture OD600=0.05) were mixed together in a 1:1 ratio.
(§3) Kanamycin at a concentration of 25 μg/ml (Irie et al., 1997) was used as a positive control, while Mili-Q deionized water and BHI medium not inoculated with bacteria were used as negative controls. Plates were shaken at 37° C., under microaerophilic conditions. […] After 24 hours, the OD600 of samples containing the negative control, i.e. with Mili-Q deionized water, was about 1.2-1.4, corresponding to a bacterial concentration of about […].
(§4) In addition, the method proposed by Knezevic et al. (2018) was used to check whether the observed OD600 was from live bacterial cells. For this purpose, an equal volume of Christensen's double strength urea broth (that is, containing twice the concentration of all components) was added to the wells after incubation, and the plates were additionally incubated for 4 hours in an oxygen atmosphere at 37° C. During incubation, in wells with urease produced by live bacteria, urea is converted to ammonia and carbon dioxide, changing the pH of the solution and thus the colour of the phenol red indicator contained in the medium (from orange to purple).
(§5) All experiments were performed in triplicate.
The experiments were carried out using the growth curve method as described in Example 3, and the results obtained for two of the compounds tested are shown in FIG. 5. As the water solubility of the compounds tested, with the exception of 2,6-diCl-Pu, is relatively poor, two experiments were carried out: the first with the maximum concentration possible under the experimental conditions in aqueous solution with a small admixture of DMSO, and the second with higher concentrations that led to partial precipitation of the compound.
The antibacterial activity of two compounds, mefloquine (in the form of hydrochloride) and quinine, described in the literature as potent in vitro inhibitors of the PNP enzyme from Plasmodium falciparum (Dziekan et al., 2019), was tested. Using a two-fold serial dilution method in liquid medium (as described in Example 3), the MIC values for mefloquine and quinine were determined against clinical H. pylori strains resistant to MTZ, CLR and MTZ+CLR (M26, M91, M92 and M93), as well as the reference H. pylori strain 26695. Four clinical H. pylori strains isolated from adults, from primary infections (the subjects had never previously been treated against H. pylori infection) were tested. These strains come from the collection of the Department of Microbiology of the Medical University of Wroclaw and were obtained due to collaboration with Prof. Grażyna Gościniak, MD, PhD. […]

[2] = test system: H. pylori; details: 2021, cited from earlier work; for MIC (literature): MTZ according to EUCAST, kanamycin according to Irie et al., 1997
[3] = target: T1, AdSS from H. pylori strain 26695 (Helicobacter pylori, UniProt P56137); test: AdSS enzyme activity assay (adenylosuccinate formation, 280 nm); assay type: biochemical
T1 construct: made in house; host or cells: E. coli BL21 (DE3)
T1 sequence (P56137 1-411): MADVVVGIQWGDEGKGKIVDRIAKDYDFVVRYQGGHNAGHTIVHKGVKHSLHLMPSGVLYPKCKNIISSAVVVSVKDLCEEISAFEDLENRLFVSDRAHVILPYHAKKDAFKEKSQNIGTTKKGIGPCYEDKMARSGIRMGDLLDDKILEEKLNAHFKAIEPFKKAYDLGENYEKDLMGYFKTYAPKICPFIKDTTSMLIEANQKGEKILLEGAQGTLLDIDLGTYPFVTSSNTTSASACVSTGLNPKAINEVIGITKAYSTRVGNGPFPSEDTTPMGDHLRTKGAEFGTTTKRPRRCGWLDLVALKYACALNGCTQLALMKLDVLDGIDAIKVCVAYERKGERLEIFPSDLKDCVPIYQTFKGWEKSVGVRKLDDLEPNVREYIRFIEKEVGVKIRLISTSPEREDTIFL
Experimental: Enzymatic activity measurements were carried out in the similar manner as described in Bubić et al. (2018), at 25° C., in cuvettes with an optical path length of 1 cm containing 1 ml of reaction mixture consisting of 20 mM Hepes/NaOH buffer pH 7.7, 1 mM MgSO4 and the substrates, GTP, IMP and Asp. Saturating concentrations of substrates, namely GTP: 0.06 mM, IMP: 0.15 mM and Asp: 5 mM, were used to measure specific activity. The extinction coefficient at 280 nm of 1.17×10^4 M^−1 cm^−1 (adenylosuccinate formation) was used to calculate the concentration of the product formed (Rudolph and Fromm 1969). One unit (U) of AdSS specific activity is defined as μmol of adenylosuccinate produced per minute at 25° C. Specific activity is expressed as units of enzymatic activity per mg of protein (U/mg).
Inhibition of AdSS by PLP was examined first at saturation with all enzyme substrates and with increasing concentrations of the PLP inhibitor.
To determine the extent to which PLP-induced inactivation develops over time, the enzyme at low concentration (0.022 μM) was incubated at 25° C. in Hepes/NaOH buffer pH 7.0, in the presence of 1.11 mM MgSO4, 5.55 mM Asp, 167 μM IMP and PLP at various concentrations (ranging between 0.03 μM and 8.1 μM). The mixture contained all components necessary for the reaction with the exception of GTP, which, according to Dong and Fromm (1990), competes with PLP. Aliquots of 900 μl were taken from the incubated mixture at specified time intervals, placed in a cuvette and 100 μl of 0.6 mM GTP solution was added to initiate the reaction. The enzyme activity was determined and analysed in the known manner as described above.
Exponential decays were fitted to the data obtained for each concentration and the reaction rate constant of the inactivation process, k, and the residual enzymatic activity observed when the system reached equilibrium, A∞, were obtained as fitting parameters. From these parameters, the half-life of the inactivation process activity, t1/2, was calculated. The dependence of these three parameters on PLP concentration is shown in the lower panel of FIG. 12.
The inhibition of AdSS from H. pylori by pyridoxal (PI-h) was studied at saturation with all enzyme substrates and with increasing concentrations of the inhibitor, similar to that for PLP in Example 10a).

[4] = test system: H. pylori strain N6; test: Growth curve method / MIC, strain N6; assay type: cell-based, Helicobacter pylori; details: strain N6; concentrations up to 5 mM
Experimental: as §1, §2, §3, §4, §5
(§6) Inhibition by PLP and its metabolic precursors of the growth of H. pylori strains: 26695, N6 and P12 in culture was investigated using the growth curve method as described in Example 3. From these experiments, the minimum inhibitory concentration was determined as the lowest concentration of a compound that inhibits the visible growth of the bacteria, compared to growth in control samples without the tested compounds. All experiments were carried out in triplicate.

[5] = test system: H. pylori strain P12; test: Growth curve method / MIC, strain P12; assay type: cell-based, Helicobacter pylori; details: strain P12; concentrations up to 5 mM
Experimental: as §1, §2, §3, §4, §5, §6

[6] = test system: H. pylori strain M26 (MTZ + CLR resistant); test: Growth curve method / MIC, resistant strain M26; assay type: cell-based, Helicobacter pylori; details: for MIC: strain M26, MTZ + CLR resistant
Experimental: as §1, §2, §3, §4, §5
(§7) The antibacterial activity of two compounds, mefloquine (in the form of hydrochloride) and quinine, described in the literature as potent in vitro inhibitors of the PNP enzyme from Plasmodium falciparum (Dziekan et al., 2019), was tested. Using a two-fold serial dilution method in liquid medium (as described in Example 3), the MIC values for mefloquine and quinine were determined against clinical H. pylori strains resistant to MTZ, CLR and MTZ+CLR (M26, M91, M92 and M93), as well as the reference H. pylori strain 26695. Four clinical H. pylori strains isolated from adults, from primary infections (the subjects had never previously been treated against H. pylori infection) were tested. These strains come from the collection of the Department of Microbiology of the Medical University of Wroclaw and were obtained due to collaboration with Prof. Grażyna Gościniak, MD, PhD. The tested compounds belong to organic substances and are soluble in DMSO. The maximum tested concentration of quinine in H. pylori culture was 0.56 mM, and that of mefloquine was 2.25 mM. […] On each occasion, the effect of DMSO alone on the growth of the H. pylori strains tested was also checked. […] Kanamycin was used as a positive control and Mili-Q deionised water as a negative control. All experiments were carried out in triplicate. […]

[7] = test system: H. pylori strain M91 (MTZ + CLR resistant); test: Growth curve method / MIC, resistant strain M91; assay type: cell-based, Helicobacter pylori; details: for MIC: strain M91, MTZ + CLR resistant
Experimental: as §1, §2, §3, §4, §5, §7

[8] = test system: H. pylori strain M92 (CLR resistant); test: Growth curve method / MIC, resistant strain M92; assay type: cell-based, Helicobacter pylori; details: for MIC: strain M92, CLR resistant
Experimental: as §1, §2, §3, §4, §5, §7

[9] = test system: H. pylori strain M93 (MTZ resistant); test: Growth curve method / MIC, resistant strain M93; assay type: cell-based, Helicobacter pylori; details: for MIC: strain M93, MTZ resistant
Experimental: as §1, §2, §3, §4, §5, §7

[10] = Helicobacter pylori, read-out: MIC

SMILES: Cc1ncc([N+](=O)[O-])n1CCO [Metronidazole, metronidazole]
- inhibition at 12 µM ([1]; Helicobacter pylori, metronidazole 12 μM (2 μg/ml), not maximum solubility, read-out: % inhibition of H. pylori cell cultures): 89 to 92%
- MIC (literature) [2]: 8 ^f μg/ml and 47 μM
- MIC (literature) ([2]; listed as MTZ): 47 μM and 8 μg/ml

SMILES: O=CN(O)CC(=O)O [hadacidin]
- inhibition of AdSS from H. pylori [3]: strongly inhibits
- inhibition of proliferation of H. pylori ([2]; Wojtyś et al.): does not inhibit the proliferation of bacteria

SMILES: Cc1ncc(CO)c(CN)c1O.Cl.Cl [pyridoxamine dihydrochloride]
- inhibition of bacterial growth [1]: no inhibition of bacterial growth
- inhibition of bacterial growth [4]: no inhibition of bacterial growth
- inhibition of bacterial growth [5]: no inhibition of bacterial growth

SMILES: Cc1ncc(CO)c(CO)c1O [pyridoxine]
- inhibition of bacterial growth [1]: no inhibition of bacterial growth
- inhibition of bacterial growth [4]: no inhibition of bacterial growth
- inhibition of bacterial growth [5]: no inhibition of bacterial growth

SMILES: C=C[C@H]1C[N@@]2CC[C@H]1C[C@H]2[C@H](O)c1ccnc2ccc(OC)cc12 [quinine]
- inhibition at 400 µM ([1]; Helicobacter pylori, quinine 0.4 mM, read-out: percentage of growth inhibition): 91%
- MIC [1, 10]: ≥ 400 µM and ≥ 130 µg/mL
- MIC [6, 10]: ≥ 400 µM and ≥ 130 µg/mL
- inhibition at 400 µM ([6]; Helicobacter pylori, strain M26, quinine 0.4 mM, read-out: percentage of growth inhibition): 87%
- MIC [6]: ≥0.4 mM and (≥130 μg/ml)
- MIC [7, 10]: ≥ 560 µM and ≥ 182 µg/mL
- inhibition at 400 µM ([7]; Helicobacter pylori, strain M91, quinine 0.4 mM, read-out: percentage of growth inhibition): 78%
- inhibition at 560 µM ([7]; Helicobacter pylori, strain M91, quinine 0.56 mM (highest tested), read-out: percentage of growth inhibition): 86%
- MIC [7]: ≥0.56 mM and (≥182 μg/ml)
- MIC [8, 10]: ≥ 400 µM and ≥ 130 µg/mL
- inhibition at 400 µM ([8]; Helicobacter pylori, strain M92, quinine 0.4 mM, read-out: percentage of growth inhibition): 76%
- MIC [8]: ≥0.4 mM and (≥130 μg/ml)
- MIC [9, 10]: ≥ 400 µM and ≥ 130 µg/mL
- inhibition at 400 µM ([9]; Helicobacter pylori, strain M93, quinine 0.4 mM, read-out: percentage of growth inhibition): 91%
- MIC [9]: ≥0.4 mM and (≥130 μg/ml)

Source: patent US20250195498A1, “INHIBITOR OF CELLULAR PURINE NUCLEOTIDE SALVAGE PATHWAY ENZYME FOR USE IN THE TREATMENT AND/OR PREVENTION OF HELICOBACTER PYLORI INFECTION AND/OR DISEASE ASSOCIATED WITH SUCH INFECTION AND PHARMACEUTICAL COMPOSITION COMPRISING THE SAME” (UNIWERSYTET WARSZAWSKI, priority 2022, published 2025)
